Source: ChEMBL document CHEMBL4359894, “Novel class of 7-Oxabicyclo[2.2.1]heptene sulfonamides with long alkyl chains displaying improved estrogen receptor α degradation activity” (Eur J Med Chem, 2019)
Activity calls are given as the source filed them. The rule behind the calls is not given here.

Legend:
[1] = target: T1, Estrogen receptor (Homo sapiens) (UniProt P03372); test: Induction of ERalpha degradation in human MCF7 cells assessed as decrease in ERalpha protein expression at 0.5 uM incubated for 24 hrs by Western blot analysis; format: cell-based
T1 sequence (whole entry): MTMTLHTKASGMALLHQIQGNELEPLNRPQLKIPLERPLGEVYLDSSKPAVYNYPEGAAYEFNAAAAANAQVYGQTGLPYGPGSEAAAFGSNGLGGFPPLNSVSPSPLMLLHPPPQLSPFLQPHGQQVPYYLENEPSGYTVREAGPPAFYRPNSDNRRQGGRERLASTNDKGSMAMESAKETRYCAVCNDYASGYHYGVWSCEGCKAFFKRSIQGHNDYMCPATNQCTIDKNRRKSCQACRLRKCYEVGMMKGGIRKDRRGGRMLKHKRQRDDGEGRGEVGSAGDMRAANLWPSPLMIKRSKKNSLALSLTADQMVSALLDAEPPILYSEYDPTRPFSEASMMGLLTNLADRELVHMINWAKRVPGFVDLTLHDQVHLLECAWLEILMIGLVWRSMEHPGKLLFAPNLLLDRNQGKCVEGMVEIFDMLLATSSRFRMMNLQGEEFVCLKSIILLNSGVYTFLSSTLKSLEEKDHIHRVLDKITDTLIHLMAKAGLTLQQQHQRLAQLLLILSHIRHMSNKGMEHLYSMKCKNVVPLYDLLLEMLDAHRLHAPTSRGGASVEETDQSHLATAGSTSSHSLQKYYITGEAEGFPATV

[2] = tested on: MCF7; test: Induction of apoptosis in human MCF7 cells assessed as necrotic cells at 5 uM incubated for 24 hrs by Annexin V-FITC/propidium iodide staining-based flow cytometric analysis (reference value: 4.65%); format: functional
[3] = target: Estrogen receptor beta (Homo sapiens) (UniProt Q92731); test: Binding affinity to ERbeta (unknown origin) by competitive fluorometric receptor binding assay relative to estradiol
[4] = tested on: MCF7; test: Induction of apoptosis in human MCF7 cells assessed as live cells at 10 uM incubated for 24 hrs by Annexin V-FITC/propidium iodide staining-based flow cytometric analysis (reference value: 85.37%); format: functional
[5] = Therapeutic index, ratio of IC50 for cytotoxicity against human MCF10A cells to IC50 for antiproliferative activity against human MCF7 cells; format: toxicity, cell-based; conditions: read-out: Ratio IC50
[6] = Half life in Sprague-Dawley rat at 3 mg/kg, iv administered via foot dorsal vein by LC-MS/MS analysis; format: ADME, organism-based; conditions: in vivo
[7] = Cmax in Sprague-Dawley rat at 3 mg/kg, iv administered via foot dorsal vein by LC-MS/MS analysis; format: ADME, organism-based; parameters: dose 3 mg/kg, route intravenous; conditions: in vivo
[8] = Plasma clearance in Sprague-Dawley rat at 3 mg/kg, iv administered via foot dorsal vein by LC-MS/MS analysis; format: ADME, organism-based
[9] = tested on: MCF7; test: Induction of apoptosis in human MCF7 cells assessed as early apoptotic cells at 1 uM incubated for 24 hrs by Annexin V-FITC/propidium iodide staining-based flow cytometric analysis (reference value: 1.26%); format: functional
[10] = target: T1, Estrogen receptor (Homo sapiens); test: Induction of ERalpha degradation in human MCF7 cells assessed as decrease in ERalpha protein expression at 5 uM incubated for 24 hrs in presence of proteasome inhibitor MG132 by Western blot analysis; format: cell-based
[11] = Tmax in Sprague-Dawley rat at 3 mg/kg, iv administered via foot dorsal vein by LC-MS/MS analysis; format: ADME, organism-based; conditions: in vivo
[12] = tested on: MCF7; test: Induction of apoptosis in human MCF7 cells assessed as necrotic cells at 1 uM incubated for 24 hrs by Annexin V-FITC/propidium iodide staining-based flow cytometric analysis (reference value: 4.65%); format: functional
[13] = AUC (0 to infinity) in Sprague-Dawley rat at 3 mg/kg, iv administered via foot dorsal vein by LC-MS/MS analysis; format: ADME, organism-based; parameters: dose 3 mg/kg, route intravenous, time infinity; conditions: in vivo
[14] = tested on: MCF-10A; test: Cytotoxicity against human MCF10A cell incubated for 72 hrs by MTT assay; format: cell-based
[15] = Volume of distribution at steady state in Sprague-Dawley rat at 3 mg/kg, iv administered via foot dorsal vein by LC-MS/MS analysis; format: ADME, organism-based; conditions: in vivo, read-out: Vdss
[16] = tested on: MCF7; test: Antiproliferative activity against human MCF7 cell incubated for 72 hrs by MTT assay; format: functional, cell-based; conditions: MCF7, 72 h
[17] = tested on: MCF7; test: Induction of apoptosis in human MCF7 cells assessed as necrotic cells at 10 uM incubated for 24 hrs by Annexin V-FITC/propidium iodide staining-based flow cytometric analysis (reference value: 4.65%); format: functional
[18] = tested on: MCF7; test: Induction of apoptosis in human MCF7 cells assessed as late apoptotic cells at 10 uM incubated for 24 hrs by Annexin V-FITC/propidium iodide staining-based flow cytometric analysis (reference value: 8.73%); format: functional
[19] = tested on: MCF7; test: Induction of apoptosis in human MCF7 cells assessed as live cells at 5 uM incubated for 24 hrs by Annexin V-FITC/propidium iodide staining-based flow cytometric analysis (reference value: 85.37%); format: functional
[20] = tested on: MCF7; test: Induction of apoptosis in human MCF7 cells assessed as late apoptotic cells at 5 uM incubated for 24 hrs by Annexin V-FITC/propidium iodide staining-based flow cytometric analysis (reference value: 8.73%); format: functional
[21] = tested on: MCF7; test: Induction of apoptosis in human MCF7 cells assessed as late apoptotic cells at 1 uM incubated for 24 hrs by Annexin V-FITC/propidium iodide staining-based flow cytometric analysis (reference value: 8.73%); format: functional
[22] = tested on: MCF7; test: Induction of apoptosis in human MCF7 cells assessed as live cells at 1 uM incubated for 24 hrs by Annexin V-FITC/propidium iodide staining-based flow cytometric analysis (reference value: 85.37%); format: functional
[23] = tested on: MCF7; test: Induction of apoptosis in human MCF7 cells assessed as early apoptotic cells at 5 uM incubated for 24 hrs by Annexin V-FITC/propidium iodide staining-based flow cytometric analysis (reference value: 1.26%); format: functional
[24] = target: T1, Estrogen receptor (Homo sapiens); test: Binding affinity to ERalpha (unknown origin) by competitive fluorometric receptor binding assay relative to estradiol
[25] = tested on: MCF7; test: Induction of apoptosis in human MCF7 cells assessed as early apoptotic cells at 10 uM incubated for 24 hrs by Annexin V-FITC/propidium iodide staining-based flow cytometric analysis (reference value: 1.26%); format: functional
[26] = target: T1, Estrogen receptor (Homo sapiens); test: Induction of ERalpha degradation in human MCF7 cells assessed as decrease in ERalpha protein expression at 5 uM incubated for 24 hrs by Western blot analysis relative to control; format: cell-based
[27] = target: T1, Estrogen receptor (Homo sapiens); test: Induction of ERalpha degradation in human MCF7 cells assessed as decrease in ERalpha protein expression at 1 uM incubated for 24 hrs by Western blot analysis relative to control; format: cell-based; parameters: scale not given: the % may be the effect or the level left

Estrogen receptor beta (Homo sapiens), sequence (Q92731 whole entry): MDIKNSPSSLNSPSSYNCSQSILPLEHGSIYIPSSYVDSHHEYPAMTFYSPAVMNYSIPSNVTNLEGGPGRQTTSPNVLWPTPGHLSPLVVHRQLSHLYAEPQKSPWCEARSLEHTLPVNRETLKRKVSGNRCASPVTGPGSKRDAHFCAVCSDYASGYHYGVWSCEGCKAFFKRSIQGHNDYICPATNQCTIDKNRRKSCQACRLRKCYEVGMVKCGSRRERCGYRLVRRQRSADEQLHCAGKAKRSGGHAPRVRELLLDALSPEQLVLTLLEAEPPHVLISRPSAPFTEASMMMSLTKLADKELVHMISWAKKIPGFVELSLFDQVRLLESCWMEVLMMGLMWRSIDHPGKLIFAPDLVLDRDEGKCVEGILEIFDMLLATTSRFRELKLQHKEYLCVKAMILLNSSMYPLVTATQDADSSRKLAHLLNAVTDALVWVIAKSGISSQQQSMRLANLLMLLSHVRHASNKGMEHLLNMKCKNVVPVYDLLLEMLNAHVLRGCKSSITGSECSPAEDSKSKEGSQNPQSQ

## CCCCCCOc1ccc(N(CC(F)(F)F)S(=O)(=O)[C@H]2C[C@H]3O[C@@H]2C(c2ccc(O)cc2)=C3c2ccc(O)cc2)cc1 (relative stereo)
[1]
  Activity: Active
[2]
  Activity: 9.24%
[3]
  relative binding affinity (RBA): 0.86
[4]
  Activity: 13.39%
[5]
  selectivity ratio: 51
[6]
  half-life: 2.2 h
[7]
  Cmax: 964 ng/mL
[8]
  clearance: 105 mL/min/kg
[9]
  Activity: 5.99%
[10]
  Activity: inactive
[11]
  Tmax: 4.8 min
[12]
  Activity: 1.34%
[13]
  AUC(0-inf): 529 ng·h/mL
[14]
  IC50: 39.3 µM
[15]
  Vd: 10.7 L/kg
[16]
  IC50: 0.77 µM
[17]
  Activity: 1.88%
[18]
  Activity: 18.77%
[19]
  Activity: 12.95%
[20]
  Activity: 40.85%
[21]
  Activity: 12.72%
[22]
  Activity: 79.95%
[23]
  Activity: 36.96%
[24]
  relative binding affinity (RBA): 3.11
[25]
  Activity: 65.96%
[26]
  Activity: Active
[27]
  Activity: 100%
